From patent publication US10131669B2, “Pyrazolopyrimidine compounds” (Pfizer Inc., priority 2014, dated 2018)
Counter-ions that a name gives are not always drawn.

Columns and labels:
Assay type in all cases: biochemical
[1] = molecular target: T1, human PDE4D3 (Homo sapiens, UniProt Q08499); experiment: PDE4D3 Scintillation Proximity Assay (SPA), inhibition of enzyme activity; conditions: geometric mean of 2-7 determinations unless otherwise indicated (b: ≥8 determinations; c: single determination); 1 μM cAMP, 30 min at 25° C.; read-out: Human PDE4D FL; IC50
T1 construct: His6 (C); made in house; host or cells: insect cells (baculovirus, pFastBac)
T1 sequence (Q08499 186-808): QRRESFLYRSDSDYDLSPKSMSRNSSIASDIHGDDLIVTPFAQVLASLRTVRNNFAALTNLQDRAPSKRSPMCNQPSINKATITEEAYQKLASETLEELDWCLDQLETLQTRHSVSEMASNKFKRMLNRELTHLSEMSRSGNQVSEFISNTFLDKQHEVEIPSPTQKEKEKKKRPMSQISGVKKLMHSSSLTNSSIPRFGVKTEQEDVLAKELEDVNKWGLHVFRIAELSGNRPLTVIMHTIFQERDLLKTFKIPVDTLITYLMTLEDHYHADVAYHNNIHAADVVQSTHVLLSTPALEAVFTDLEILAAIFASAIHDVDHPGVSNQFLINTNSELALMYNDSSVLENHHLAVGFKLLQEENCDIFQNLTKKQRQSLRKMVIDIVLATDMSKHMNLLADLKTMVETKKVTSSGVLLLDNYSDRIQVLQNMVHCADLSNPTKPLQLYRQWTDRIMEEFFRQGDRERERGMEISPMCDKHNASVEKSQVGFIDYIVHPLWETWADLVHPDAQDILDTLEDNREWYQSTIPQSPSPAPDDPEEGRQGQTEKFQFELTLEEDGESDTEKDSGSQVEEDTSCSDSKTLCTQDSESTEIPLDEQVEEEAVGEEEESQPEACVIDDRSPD
Protocol: The recombinant Bacmid was isolated and used to transfect insect cells to generate a viral stock. To generate cell paste for purification, insect cells were infected and cells were harvested 72 hours after infection. Insect cell paste was lysed and after centrifugation, the supernatant was chromatographed on Ni-NTA agarose (Qiagen) as described in Seeger, T. F. et al., Brain Research 985 (2003) 113-126. Ni-NTA agarose eluting fractions containing PDE4 were pooled, diluted with Q Buffer A (50 mM Tris HCl pH 8, 4% glycerol, 100 mM NaCl, 1 mM TCEP, Protease inhibitors EDTA-free (Roche)) to reduce NaCl to ˜200 mM, and loaded on a Q Sepharose (GE Healthcare) column. After washing with Q buffer A to baseline, PDE4D was eluted with a gradient from 10% to 60% of Buffer B (50 mM Tris HCl pH 8, 1 M NaCl, 4% glycerol, 1 mM TCEP). PDE4D fractions were analyzed by SDS-PAGE Coomassie blue staining, pooled based on purity, frozen and stored at −80° C.
(§1) The PDE4A3, PDE4B1, PDE4C1 and PDE4D3 assays use the Scintillation Proximity Assay (SPA) technology to measure the inhibition of human recombinant […], PDE4C1, and PDE4D3 enzyme activity by compounds in vitro. The PDE4A1, PDE4B3, PDE4C1, and PDE4D3 assays are run in parallel using identical parameters, except for the concentration of enzyme (80 pM PDE4A3, 40 pM PDE4B3, 40 pM PDE4C1 and 10 pM PDE4D). The assays are performed in a 384-well format with 50 uL assay buffer (50 mM TRIS pH7.5; 1.3 mM MgCl2; 0.01% Brij) containing enough PDE4A3, PDE4B1, PDE4C1, and PDE4D to convert ˜20% of substrate (1 μM cAMP consisting of 20 nM 3H-cAMP+[…] cold cAMP) and a range of inhibitors. Reactions are incubated for 30 min at 25° C. The addition of 20 uL of 8 mg/ml yitrium silicate SPA beads (Perkin Elmer) stops the reaction. The plates are sealed (TopSeal, Perkin Elmer) and the beads are allowed to settle for 8 hrs, after which they are read on the Trilux Microbeta overnight.

[2] = molecular target: T2, Human PDE4A3 (Homo sapiens, UniProt P27815); experiment: PDE4A3 Scintillation Proximity Assay (SPA), inhibition of enzyme activity; conditions: geometric mean of 2-7 determinations unless otherwise indicated (b: ≥8 determinations; c: single determination), 1 μM cAMP, 30 min at 25° C., read-out: Human PDE4A FL
T2 construct: His6 (N); FLAG (C); made in house; host or cells: insect cells (baculovirus, pFastBac)
T2 sequence (P27815 2-825 isoform P27815-6): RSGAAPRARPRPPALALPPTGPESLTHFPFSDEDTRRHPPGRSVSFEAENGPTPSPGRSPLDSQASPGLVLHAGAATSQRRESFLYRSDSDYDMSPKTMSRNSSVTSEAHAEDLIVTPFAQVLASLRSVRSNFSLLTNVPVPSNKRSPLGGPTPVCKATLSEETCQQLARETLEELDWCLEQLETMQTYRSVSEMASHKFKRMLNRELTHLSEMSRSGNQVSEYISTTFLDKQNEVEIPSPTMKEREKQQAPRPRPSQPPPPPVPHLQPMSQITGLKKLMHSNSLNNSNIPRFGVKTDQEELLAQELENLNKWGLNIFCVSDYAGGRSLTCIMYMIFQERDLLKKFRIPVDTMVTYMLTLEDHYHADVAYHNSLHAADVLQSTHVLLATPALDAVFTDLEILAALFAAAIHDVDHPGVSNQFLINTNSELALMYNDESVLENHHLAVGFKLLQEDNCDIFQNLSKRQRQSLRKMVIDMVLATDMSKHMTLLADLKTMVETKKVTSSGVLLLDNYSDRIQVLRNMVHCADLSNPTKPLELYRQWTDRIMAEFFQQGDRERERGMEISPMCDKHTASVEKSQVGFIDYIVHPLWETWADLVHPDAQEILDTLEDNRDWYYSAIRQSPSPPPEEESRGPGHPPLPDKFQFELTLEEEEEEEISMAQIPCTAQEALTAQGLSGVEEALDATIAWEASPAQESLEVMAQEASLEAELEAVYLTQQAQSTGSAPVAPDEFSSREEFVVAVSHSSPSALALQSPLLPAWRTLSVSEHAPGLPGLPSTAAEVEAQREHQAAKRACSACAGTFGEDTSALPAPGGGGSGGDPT
Text: (§2) Human PDE4A3 coding sequence (amino acids 2 to 825 from the sequence with accession number NP_001104779) was cloned into the baculovirus expression vector pFastBac (Invitrogen) engineered to include an N-terminal His6 affinity tag and a c-terminal FLAG affinity tag to aid in purification. The recombinant Bacmid was isolated and used to transfect insect cells to generate a viral stock. To generate cell paste for purification, insect cells were infected with the virus stock and cells were harvested 72 hours after infection. Insect cell paste was lysed and after centrifugation, the supernatant was batch bound to Ni-NTA agarose (GE Healthcare) and eluted with 250 mM imidazole. This eluate was diluted with FLAG buffer (50 mM Tris HCL pH 7.5, 100 mM NaCl, 5% Glycerol, 1 mM TCEP with protease inhibitors) and batch bound to ant-FLAG M2 agarose (Sigma) overnight at 4° C. The agarose was packed into a column, washed with buffer and eluted with buffer containing elute using 250 ug/ml Flag-peptide. Fractions were analyzed using SDS-PAGE Coomassie blue staining and pooled based on purity. Pooled fractions were chromatographed on a S200 120 ml column (GE Healthcare) in 50 mM Tris HCL pH 7.5, 150 mM NaCl, 10% Glycerol, 2 mM TCEP with protease inhibitors. PDE4A3 fractions were analyzed by SDS-PAGE Coomassie blue staining, pooled based on purity, dialyzed against 50 mM Tris HCL pH 7.5, 100 mM NaCl, 20% Glycerol, 2 mM TCEP, frozen and stored at −80° C.
as §1

[3] = molecular target: T3, Human PDE4B1 (Homo sapiens, UniProt Q07343, S133E/S654A/S659A/S661A); experiment: PDE4B1 Scintillation Proximity Assay (SPA), inhibition of enzyme activity; conditions: geometric mean of 2-7 determinations unless otherwise indicated (b: ≥8 determinations; c: single determination); 1 μM cAMP, 30 min at 25° C.; read-out: Human PDE4B FL; IC50
T3 construct: His6 (N); thrombin cleavage site (N); made in house; host or cells: insect cells (baculovirus, pFastBac)
T3 sequence (Q07343 122-736 S133E/S654A/S659A/S661A): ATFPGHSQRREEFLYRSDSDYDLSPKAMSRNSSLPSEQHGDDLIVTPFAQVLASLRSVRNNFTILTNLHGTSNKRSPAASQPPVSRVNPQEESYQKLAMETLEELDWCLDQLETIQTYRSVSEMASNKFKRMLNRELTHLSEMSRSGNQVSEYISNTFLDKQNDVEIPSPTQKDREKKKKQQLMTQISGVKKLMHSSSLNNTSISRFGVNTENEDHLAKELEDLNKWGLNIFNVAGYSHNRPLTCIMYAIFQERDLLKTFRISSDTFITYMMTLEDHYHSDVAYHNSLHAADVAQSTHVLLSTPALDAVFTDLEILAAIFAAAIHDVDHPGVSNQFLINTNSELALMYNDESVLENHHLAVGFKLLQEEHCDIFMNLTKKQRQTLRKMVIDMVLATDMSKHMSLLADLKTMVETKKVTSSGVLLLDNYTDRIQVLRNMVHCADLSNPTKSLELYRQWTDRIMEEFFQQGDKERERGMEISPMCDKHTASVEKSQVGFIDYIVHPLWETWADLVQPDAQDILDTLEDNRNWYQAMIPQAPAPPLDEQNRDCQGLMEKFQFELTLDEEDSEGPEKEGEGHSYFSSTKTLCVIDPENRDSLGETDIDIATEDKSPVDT
Protocol: The recombinant Bacmid was isolated and used to transfect insect cells to generate a viral stock. To generate cell paste for purification, insect cells were infected with the virus stock and cells were harvested 72 hours after infection as described in Seeger, T. F. et al., Brain Research 985 (2003) 113-126. Insect cell paste was lysed and after centrifugation, the supernatant was chromatographed on Ni-NTA agarose (Qiagen) as described in Seeger, T. F. et al., Brain Research 985 (2003) 113-126. Ni-NTA agarose eluting fractions containing PDE4 were pooled, diluted with Q buffer A (20 mM Tris HCl pH 8, 5% glycerol, 1 mM TCEP) to reduce NaCl to ˜100 mM and loaded on a Source 15Q (GE Healthcare) column. After washing with Q buffer A/10% buffer B to baseline, PDE4D was eluted with a gradient from 10% to 60% of Buffer B (20 mM Tris HCl pH 8, 1 M NaCl, 5% glycerol, 1 mM TCEP). PDE4D fractions were analyzed by SDS-PAGE Coomassie blue staining, pooled based on purity, frozen and stored at −80° C.
as §1

[4] = molecular target: T4, Human PDE4C1 (Homo sapiens, UniProt Q08493); experiment: PDE4C1 Scintillation Proximity Assay (SPA), inhibition of enzyme activity; conditions: geometric mean of 2-7 determinations unless otherwise indicated (b: ≥8 determinations; c: single determination), 1 μM cAMP, 30 min at 25° C., read-out: Human PDE4C FL
T4 construct: His6 (N); FLAG (C); made in house; host or cells: insect cells (baculovirus, pFastBac)
T4 sequence (Q08493 2-712): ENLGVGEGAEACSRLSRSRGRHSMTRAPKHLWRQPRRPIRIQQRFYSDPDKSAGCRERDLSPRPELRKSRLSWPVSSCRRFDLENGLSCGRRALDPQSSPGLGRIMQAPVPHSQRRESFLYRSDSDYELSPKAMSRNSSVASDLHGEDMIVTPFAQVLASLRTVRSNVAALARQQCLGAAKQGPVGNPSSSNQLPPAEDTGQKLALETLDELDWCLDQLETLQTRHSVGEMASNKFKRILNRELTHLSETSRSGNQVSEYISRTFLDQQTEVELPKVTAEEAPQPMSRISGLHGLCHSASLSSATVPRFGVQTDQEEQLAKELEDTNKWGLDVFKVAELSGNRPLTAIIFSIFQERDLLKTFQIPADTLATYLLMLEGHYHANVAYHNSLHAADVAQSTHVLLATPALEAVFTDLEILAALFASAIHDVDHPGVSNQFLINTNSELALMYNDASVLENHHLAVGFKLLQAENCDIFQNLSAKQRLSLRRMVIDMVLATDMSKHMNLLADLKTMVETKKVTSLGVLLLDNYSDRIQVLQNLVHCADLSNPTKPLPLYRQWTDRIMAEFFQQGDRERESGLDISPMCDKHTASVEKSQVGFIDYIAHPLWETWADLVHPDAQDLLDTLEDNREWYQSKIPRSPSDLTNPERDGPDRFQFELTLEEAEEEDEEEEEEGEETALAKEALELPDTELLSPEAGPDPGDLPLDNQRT
Protocol: as §2, with “The” for “Human PDE4A3 coding sequence (amino acids 2 to 825 from the sequence with accession number NP_001104779) was cloned into the baculovirus expression vector pFastBac (Invitrogen) engineered to include an N-terminal His6 affinity tag and a c-terminal FLAG affinity tag to aid in purification. The”, “PDE4C1” for “PDE4A3”
as §1

| IC50 [1] | IC50 [2] | IC50 [3] | IC50 [4] | Structure (SMILES) |
| --- | --- | --- | --- | --- |
| 283 nM | 5.35 nM | 9.61 nM | 17.4 nM | Cc1cc(Cl)c(F)cc1-c1c(C(=O)NC2CC2)nn2cccnc12 [Example 25, 3-(4-chloro-5-fluoro-2-methylphenyl)-N-cyclopropylpyrazolo[1,5-a]pyrimidine-2-carboxamide] |
| 6630 nM | 109 nM | 51.7 nM | 52.7 nM | N#Cc1ccc(-c2c(C(=O)N3CCC3)nn3cccnc23)cc1F [Example 15, 4-[2-(azetidin-1-ylcarbonyl)pyrazolo[1,5-a]pyrimidin-3-yl]-2-fluorobenzonitrile] |
| 469 nM | 12.9 nM | 24.5 nM | 59 nM | Cc1cc(Cl)c(F)cc1-c1c(C(=O)NC(C)C)nn2cccnc12 [Example 54, 3-(4-chloro-5-fluoro-2-methylphenyl)-N-(propan-2-yl)pyrazolo[1,5-a]pyrimidine-2-carboxamide] |
| 4150 nM | 61.4 nM | 34.6 nM | 60.6 nM | CCCNC(=O)c1nn2cccnc2c1-c1ccc(Cl)cc1 [Example 2, 3-(4-Chlorophenyl)-N-propylpyrazolo[1,5-a]pyrimidine-2-carboxamide] |
| 662 nM | 3.29 nM | 5.87 nM | 18 nM | O=C(NC1CC1)c1nn2cccnc2c1-c1ccc(Cl)c(F)c1 [Example 5, 3-(4-Chloro-3-fluorophenyl)-N-cyclopropylpyrazolo[1,5-a]pyrimidine-2-carboxamide] |
| 92.9 nM | 3.37 nM | 17.3 nM | 36.1 nM | Cc1cc(C#N)c(F)cc1-c1c(C(=O)N2CCC2)nn2cccnc12 [Example 69, 4-[2-(azetidin-1-ylcarbonyl)pyrazolo[1,5-a]pyrimidin-3-yl]-2-fluoro-5-methylbenzonitrile] |
| 79 nM | 2 nM | 7 nM | 9 nM | O=C(c1nn2cc(F)cnc2c1-c1ccc(Cl)c(F)c1)N1CCC1 [Example 66, azetidin-1-yl[3-(4-chloro-3-fluorophenyl)-6-fluoropyrazolo[1,5-a]pyrimidin-2-yl]methanone] |
| 606 nM | 8.53 nM | 35.4 nM | 44 nM | Cc1cc(Cl)c(F)cc1-c1c(C(=O)NC2CCC2)nn2cccnc12 [Example 24, 3-(4-chloro-5-fluoro-2-methylphenyl)-N-cyclobutylpyrazolo[1,5-a]pyrimidine-2-carboxamide] |
| > 11900 nM | 192 nM | 358 nM | 898 nM | N#Cc1ccc(-c2c(C(=O)NC3CC3)nn3cccnc23)cn1 [Example 44, 3-(6-cyanopyridin-3-yl)-N-cyclopropylpyrazolo[1,5-a]pyrimidine-2-carboxamide] |
| > 18400 nM | 212 nM | 474 nM | 1190 nM | COc1cc(-c2c(C(=O)NC3CC3)nn3cccnc23)ccn1 [Example 42, N-cyclopropyl-3-(2-methoxypyridin-4-yl)pyrazolo[1,5-a]pyrimidine-2-carboxamide] |
| 819 nM | 4.69 nM | 24.4 nM | 13.9 nM | O=C(NC1CC1)c1nn2cccnc2c1-c1cc(F)c(Cl)cc1F [Example 47, 3-(4-chloro-2,5-difluorophenyl)-N-cyclopropylpyrazolo[1,5-a]pyrimidine-2-carboxamide] |
| 111 nM | 3.46 nM | 16.4 nM | 26.8 nM | Cc1cc(C#N)c(F)cc1-c1c(C(=O)NC2CC2)nn2cc(F)cnc12 [Example 67, 3-(4-cyano-5-fluoro-2-methylphenyl)-N-cyclopropyl-6-fluoropyrazolo[1,5-a]pyrimidine-2-carboxamide] |
| 680 nM | 8.09 nM | 23.6 nM | 17 nM | Cc1ccc(-c2c(C(=O)NC3CC3)nn3cccnc23)cc1F [Example 70, N-cyclopropyl-3-(3-fluoro-4-methylphenyl)pyrazolo[1,5-a]pyrimidine-2-carboxamide] |
| 2120 nM | 36.2 nM | 51 nM | 106 nM | O=C(NC1CC1)c1nn2cccnc2c1-c1cccc(Cl)c1 [Example 31, 3-(3-chlorophenyl)-N-cyclopropylpyrazolo[1,5-a]pyrimidine-2-carboxamide, hydrochloride salt] |
| 4910 nM | 411 nM | 488 nM | 626 nM | CC(C)NC(=O)c1nn2cccnc2c1-c1ccc(Cl)cc1 [Example 26, 3-(4-chlorophenyl)-N-(propan-2-yl)pyrazolo[1,5-a]pyrimidine-2-carboxamide] |
| 1290 nM | 7.28 nM | 63.5 nM | 29.6 nM | O=C(c1nn2cccnc2c1-c1cc(F)c(Cl)cc1F)N1CCC1 [Example 49, azetidin-1-yl[3-(4-chloro-2,5-difluorophenyl)pyrazolo[1,5-a]pyrimidin-2-yl]methanone] |
